{"source": "patent US20040143025A1", "about": "“Carbon monoxide generating compunds for treatment of vascular, inflammatory and immune disorders” (priority 2002, published 2004)", "key": {"[1]": {"system": "aortic allografts", "experiment": "Immunohistology of aortic grafts: activation markers and cytokines", "format": "in vivo, rat", "parameters": "key: −: not present; +: low; ++: moderate; +++: frequent", "method": "(§1) Immunohistological analysis. Immunohistology was performed on cryostat sections as previously described in detail. Guillot et al., J. Immunol. 164:5258-68 (2000). Immunohistological analysis of infiltrating leukocytes was performed at day 30 after transplantation using the following mouse Mab: a mixture of two anti-leukocyte CD45 Mabs (OX1 AND OX30), anti-monocyte/macrophage CD68 (ED1), anti-αβ TCR (R.7.3), anti-CD4 (W3/25), anti-CD8 α chain (OX8), anti-monomorphic class II MHC antigens (OX6), anti-CD25 (OX39) (all from ECACC, Wiltshire, UK), anti-CD54 (ICAM-1) (Seikagaku America Inc., Rockville, Mass.), anti-CD86 (B7.2) (Pharmingen, Franklin Lakes, N.J.) and an irrelevant mouse Mab (3G8, anti-human CD16). VSMCs were detected using a mouse anti-α human smooth muscle actin Mab (Sigma, St. Louis, Mo.). Slides were then incubated with a biotin-conjugated anti-mouse immunoglobulin antibody (Vector Laboratories, Burlingame, Calif.), followed by HRP-conjugated streptavidin (Vector Laboratories) and VIP substrate. IFNγ expression was analyzed using a hamster Mab (Genzyme, Cambridge, Mass.). The IP10 chemiokine was detected using a goat anti-IP10 antibody (Santa Cruz, Santa Cruz, Calif.). Rabbit antibodies were used to detect iNOS (Transduction Laboratories, Lexington, Ky.), HO-1 (Stressgen) and TGFβ1 (Promega, Madison, Wis.). Biotin-conjugated anti-hamster, anti-goat and anti-rabbit antibodies were from Jackson Immunoresearch. Binding of these antibodies was detected by incubation with HRP-conjugated streptavidin and VIP substrate. Tissue sections were counterstained with hematoxylin and lithium carbonate."}, "[2]": {"system": "aortic allografts", "experiment": "Immunohistology of aortic grafts: infiltrating leukocytes and VSMCs", "format": "in vivo, rat", "parameters": "key: −: not present; +: low; ++: moderate; +++: frequent", "conditions": "day 30", "method": "as §1"}, "[3]": {"system": "TNF-α", "experiment": "LPS-induced serum TNF-α in mice (sandwich ELISA)", "format": "in vivo, C57/BL6 mice", "method": "To examine the effect of gaseous CO on the immune system, C57/BL6 mice (B6, Jackson Laboratory, Bar Harbor, Me.) were first exposed to 500 ppm CO in air (Praxair, Danbury, Conn.) for one hour in a sealed chamber before injection of lipopolysaccharide (LPS) (0.3 mg/kg, i.v., Sigma, St Louis, Mo.). After injection, they were exposed to another hour in the CO chamber. Blood samples were collected one hour after LPS injection (through the aortic artery) and the COHb level in whole blood was measured by a whole blood AVOXimeter 4000 (A-VOX Systems, San Antonio, Tex.). Serum samples were separated and were kept at −80° C. until analysis. Serum TNF-α was measured by sandwich ELISA (Biosource, Camarillo, Calif.).\nTo reveal the therapeutic potential of CO generators, methylene chloride (MC, Sigma, St. Louis, Mo.) was selected as a lead compound. Different concentrations of MC were prepared by using olive oil as a solvent. Mice were treated with MC at 5 mg/kg., 50 mg/kg, and 500 mg/kg, p.o., one hour before LPS administration."}, "[4]": {"system": "iNOS", "experiment": "Western blot of liver samples, iNOS", "parameters": "species or system rat", "conditions": "2 h reperfusion", "method": "Western blots. Protein was extracted from liver samples with PBSTDS buffer (50 mM Tris, 150 mM NaCl, 0.1% SDS, 1% sodium deoxycholate, and 1% triton X-100, pH 7.2). Proteins (30 μg/sample) in SDS-loading buffer (50 mM Tris, pH 7.6, 10% glycerol, 1% SDS) were subjected to 12% SDS-polyacrylamide gel electrophoresis and transferred to nitrocellulose membrane (Bio-Rad, Hercules, Calif.). The gel was stained with coomassie blue to document equal protein loading. The membrane was blocked with 3% dry milk and 0.1% Tween 20 (USB, Cleveland, Ohio) in PBS and incubated with rabbit anti-rat HO-1 or iNOS polyclonal Abs (SangStat, Fremont, Calif.). Relative protein quantities were determined using a densitometer (Kodak Digital Science 1D Analysis Software, Rochester, N.Y.)."}, "[5]": {"system": "Louvain rats immunized with collagen type II", "experiment": "Rat collagen-arthritis model", "format": "in vivo", "parameters": "arthritic score / Arthritis Score / X-Ray Score: scale not given here", "method": "To assess the therapeutic potential of methylene chloride as a carbon-monoxide generating compound in this disease model, female Louvain rats weighing between 120 and 150 g were injected intradermally with 0.5 mg native chicken collagen type II solubilized in 0.1M acetic acid and emulsified in incomplete Freund's adjuvant. At the onset of disease (around day 10) animals were divided into three groups. One group was treated daily with vehicle, the second and third groups with 100 mg/kg/day and 500 mg/kg/day methylene chloride (p.o.). Severity of disease was evaluated daily using a quantification method based on standardized levels of swelling and periarticular erythema. Animals were sacrificed on day 28. […] Compared to control animals these differences were statistically significant (p<0.02).\nIodoform and bromoform were compared with methylene chloride as alternative carbon monoxide generating compounds, using the rat collagen arthritis model described in Example 6 above. Briefly, arthritis was induced in a Lovain strain of rats by immunizing the animals with Collagen Type II in Incomplete Freund's Adjuvant. Digitized radiographs were obtained at the completion of the study on day 28. Pharmacokinetics were also determined and the synovial tissue from the inflamed joints of the treated animals was harvested on Day 16 or Day 28 post-immunization. Disease systems were generally evident by Day 10."}}, "data": [{"smiles": "[C-]#[O+]", "note": "[CO, carbon monoxide]", "values": [{"measurement": "CD54 (ICAM-1)", "setting": "[1]; adventitia", "result": "+++"}, {"measurement": "CD86 (B7.2)", "setting": "[1]; adventitia", "result": "+"}, {"measurement": "INOS", "setting": "[1]; adventitia", "result": "+++"}, {"measurement": "IP10", "setting": "[1]; adventitia", "result": "+"}, {"measurement": "MHC-II", "setting": "[1]; adventitia", "result": "++"}, {"measurement": "TGFβ", "setting": "[1]; adventitia", "result": "++"}, {"measurement": "CD54 (ICAM-1)", "setting": "[1]; intima", "result": "++"}, {"measurement": "CD86 (B7.2)", "setting": "[1]; intima", "result": "+"}, {"measurement": "INOS", "setting": "[1]; intima", "result": "++"}, {"measurement": "IP10", "setting": "[1]; intima", "result": "+"}, {"measurement": "MHC-II", "setting": "[1]; intima", "result": "++"}, {"measurement": "TGFβ", "setting": "[1]; intima", "result": "+"}, {"measurement": "CD54 (ICAM-1)", "setting": "[1]; media", "result": "−"}, {"measurement": "CD86 (B7.2)", "setting": "[1]; media", "result": "−"}, {"measurement": "INOS", "setting": "[1]; media", "result": "++"}, {"measurement": "IP10", "setting": "[1]; media", "result": "+"}, {"measurement": "MHC-II", "setting": "[1]; media", "result": "−"}, {"measurement": "TGFβ", "setting": "[1]; media", "result": "+"}, {"measurement": "CD4", "setting": "[2]; adventitia", "result": "++"}, {"measurement": "CD8", "setting": "[2]; adventitia", "result": "+"}, {"measurement": "CD45 (leukocytes)", "setting": "[2]; adventitia", "result": "+++"}, {"measurement": "CD68 (macrophages)", "setting": "[2]; adventitia", "result": "+++"}, {"measurement": "TCRαβ (T cells)", "setting": "[2]; adventitia", "result": "+"}, {"measurement": "VSMCs", "setting": "[2]; adventitia", "result": "−"}, {"measurement": "CD4", "setting": "[2]; intima", "result": "+"}, {"measurement": "CD8", "setting": "[2]; intima", "result": "+"}, {"measurement": "CD45 (leukocytes)", "setting": "[2]; intima", "result": "++"}, {"measurement": "CD68 (macrophages)", "setting": "[2]; intima", "result": "++"}, {"measurement": "TCRαβ (T cells)", "setting": "[2]; intima", "result": "−"}, {"measurement": "VSMCs", "setting": "[2]; intima", "result": "−"}, {"measurement": "CD4", "setting": "[2]; media", "result": "−"}, {"measurement": "CD8", "setting": "[2]; media", "result": "−"}, {"measurement": "CD45 (leukocytes)", "setting": "[2]; media", "result": "−"}, {"measurement": "CD68 (macrophages)", "setting": "[2]; media", "result": "−"}, {"measurement": "TCRαβ (T cells)", "setting": "[2]; media", "result": "−"}, {"measurement": "VSMCs", "setting": "[2]; media", "result": "+++"}, {"measurement": "serum TNF-α levels", "setting": "[3]; LPS 0.3 mg/kg i.v., 500 ppm CO in air 1 h before and 1 h after LPS, blood 1 h after LPS", "result": "3,347+1393 pg/ml"}, {"measurement": "iNOS expression (Western blot)", "setting": "[4]", "result": "no detectable bands"}]}, {"smiles": "ClCCl", "note": "[methylene chloride]", "values": [{"measurement": "X-ray score (bone erosion)", "setting": "[5]; methylene chloride 100 mg/kg/day", "result": "2.7+/−0.8"}, {"measurement": "arthritic score (mean+/−standard error)", "setting": "[5]; methylene chloride 100 mg/kg/day p.o., end of study (day 28)", "result": "3.8+/−1.0"}, {"measurement": "X-ray score (bone erosion)", "setting": "[5]; methylene chloride 500 mg/kg/day", "result": "1.8+/−0.7"}, {"measurement": "arthritic score", "setting": "[5]; methylene chloride 500 mg/kg/day p.o., end of study (day 28)", "result": 2.75}, {"measurement": "level of TNF-α", "setting": "[3]; MC 5 mg/kg p.o. one hour before LPS", "result": "3720 ± 1666", "unit": "pg/mL"}, {"measurement": "level of TNF-α", "setting": "[3]; MC 50 mg/kg p.o. one hour before LPS", "result": "3124.2 ± 1147", "unit": "pg/mL"}, {"measurement": "level of TNF-α", "setting": "[3]; MC 500 mg/kg p.o. one hour before LPS", "result": "2339 ± 770", "unit": "pg/mL"}]}]}
